Measured values from patent publication US6764996B1, “9a-azalides with antibacterial activity” (Abbott Laboratories, priority 1999, dated 2004).

How the values were obtained:
Test in all cases: In vitro antibacterial activity, agar dilution MIC
Format in all cases: cell-based
Candida albicans CCH 442 = details: code TT: Candida albicans CCH 442; BHI agar, 35-37° C., 20 to 24 hours; unit assumed
Method: (§1) Representative compounds of the present invention were assayed in vitro for antibacterial activity as follows: Twelve petri dishes containing successive aqueous dilutions of the test compound mixed with 10 mL of sterilized Brain Heart Infusion (BHI) agar (Difco 0418-01-5) were prepared. Each plate was inoculated with 1:100 (or 1:10 for slow-growing strains, such as Micrococcus and Streptococcus) dilutions of up to 32 different microorganisms, using a Steers replicator block. The inoculated plates were incubated at 35-37° C. for 20 to 24 hours. In addition, a control plate, using BHI agar containing no test compound, was prepared and incubated at the beginning and end of each test.
(§2) An additional plate containing a compound having known susceptibility patterns for the organisms being tested and belonging to the same antibiotic class as the test compound was also prepared and incubated as a further control, as well as to provide test-to-test comparability. Erythromycin A was used for this purpose.
(§3) After incubation, each plate was visually inspected. The minimum inhibitory concentration (MIC) was defined as the lowest concentration of drug yielding no growth, a slight haze, or sparsely isolated colonies on the inoculum spot as compared to the growth control.

Escherichiacoli JUHL = details: code QQ: Escherichiacoli JUHL; BHI agar, 35-37° C., 20 to 24 hours; unit assumed
Method: as §1, §2, §3

Escherichiacoli SS = details: code RR: Escherichiacoli SS; BHI agar, 35-37° C., 20 to 24 hours; unit assumed
Method: as §1, §2, §3

[1] = system: Haemophilislnfluenzae DILL AMP R; details: code WW: Haemophilislnfluenzae DILL AMP R; BHI agar, 35-37° C., 20 to 24 hours; unit assumed
Method: as §1, §2, §3

[2] = system: Micrococcusluteus ATCC 4698; details: code PP: Micrococcusluteus ATCC 4698; BHI agar, 35-37° C., 20 to 24 hours; unit assumed
Method: as §1, §2, §3

[3] = system: Mycobacterium smegmatis ATCC 114; details: code UU: Mycobacterium smegmatis ATCC 114; BHI agar, 35-37° C., 20 to 24 hours; unit assumed
Method: as §1, §2, §3

[4] = system: Nocardia Asteroides ATCC 99700; details: code VV: Nocardia Asteroides ATCC 99700; BHI agar, 35-37° C., 20 to 24 hours; unit assumed
Method: as §1, §2, §3

[5] = system: Staphylococcus aureus 1775; details: code GG: Staphylococcus aureus 1775; BHI agar, 35-37° C., 20 to 24 hours; unit assumed
Method: as §1, §2, §3

[6] = system: Staphylococcus aureus A-5177; details: code BB: Staphylococcus aureus A-5177; BHI agar, 35-37° C., 20 to 24 hours; unit assumed
Method: as §1, §2, §3

[7] = system: Staphylococcus aureus A-5278; details: code CC: Staphylococcus aureus A-5278; BHI agar, 35-37° C., 20 to 24 hours; unit assumed
Method: as §1, §2, §3

[8] = system: Staphylococcus aureus ATCC 6538P; details: code AA: Staphylococcus aureus ATCC 6538P; BHI agar, 35-37° C., 20 to 24 hours; unit assumed
Method: as §1, §2, §3

[9] = system: Staphylococcus aureus NCTC 10649M; details: code EE: Staphylococcus aureus NCTC 10649M; BHI agar, 35-37° C., 20 to 24 hours; unit assumed
Method: as §1, §2, §3

[10] = system: Staphylococcus epidermidis 3519; details: code HH: Staphylococcus epidermidis 3519; BHI agar, 35-37° C., 20 to 24 hours; unit assumed
Method: as §1, §2, §3

[11] = system: Streptococcus Pneumonia 5649; details: code ZA: Streptococcus Pneumonia 5649; BHI agar, 35-37° C., 20 to 24 hours; unit assumed
Method: as §1, §2, §3

[12] = system: Streptococcus Pneumonia ATCC 6303; details: code XX: Streptococcus Pneumonia ATCC 6303; BHI agar, 35-37° C., 20 to 24 hours; unit assumed
Method: as §1, §2, §3

[13] = system: Streptococcus Pneumonia GYR 1171; details: code YY: Streptococcus Pneumonia GYR 1171; BHI agar, 35-37° C., 20 to 24 hours; unit assumed
Method: as §1, §2, §3

[14] = system: Streptococcus agalactiae CMX 508; details: code KK: Streptococcus agalactiae CMX 508; BHI agar, 35-37° C., 20 to 24 hours; unit assumed
Method: as §1, §2, §3

[15] = system: Streptococcus bovis A-5169; details: code JJ: Streptococcus bovis A-5169; BHI agar, 35-37° C., 20 to 24 hours; unit assumed
Method: as §1, §2, §3

[16] = system: Streptococcus pyogenes 930; details: code MM: Streptococcus pyogenes 930; BHI agar, 35-37° C., 20 to 24 hours; unit assumed
Method: as §1, §2, §3

[17] = system: Streptococcus pyogenes EES61; details: code LL: Streptococcus pyogenes EES61; BHI agar, 35-37° C., 20 to 24 hours; unit assumed
Method: as §1, §2, §3

[18] = system: Streptococcus pyogenes PIU 2548; details: code NN: Streptococcus pyogenes PIU 2548; BHI agar, 35-37° C., 20 to 24 hours; unit assumed
Method: as §1, §2, §3

[19] = system: Streptococcus Pneumonia 5979; details: code ZZ: Streptococcus Pneumonia 5979; BHI agar, 35-37° C., 20 to 24 hours; unit assumed
Method: as §1
An additional plate containing a compound having known susceptibility patterns for the organisms being tested and belonging to the same antibiotic class as the test compound was also prepared and incubated as a further control, as well as to provide test-to-test comparability.
as §3

| SMILES | Antibacterial Activity (MIC) (Candida albicans CCH 442) [µg/mL] | Antibacterial Activity (MIC) (Escherichiacoli JUHL) [µg/mL] | Antibacterial Activity (MIC) (Escherichiacoli SS) [µg/mL] | Antibacterial Activity (MIC) [1] [µg/mL] | Antibacterial Activity (MIC) [2] [µg/mL] | Antibacterial Activity (MIC) [3] [µg/mL] | Antibacterial Activity (MIC) [4] [µg/mL] | Antibacterial Activity (MIC) [5] [µg/mL] | Antibacterial Activity (MIC) [6] [µg/mL] | Antibacterial Activity (MIC) [7] [µg/mL] | Antibacterial Activity (MIC) [8] [µg/mL] | Antibacterial Activity (MIC) [9] [µg/mL] | Antibacterial Activity (MIC) [10] [µg/mL] | Antibacterial Activity (MIC) [11] [µg/mL] | Antibacterial Activity (MIC) [12] [µg/mL] | Antibacterial Activity (MIC) [13] [µg/mL] | Antibacterial Activity (MIC) [14] [µg/mL] | Antibacterial Activity (MIC) [15] [µg/mL] | Antibacterial Activity (MIC) [16] [µg/mL] | Antibacterial Activity (MIC) [17] [µg/mL] | further results |
| --- | --- | --- | --- | --- | --- | --- | --- | --- | --- | --- | --- | --- | --- | --- | --- | --- | --- | --- | --- | --- | --- |
| C=CCOC1(C)CC(C)CN(C)C(C)C(O)C(C)(O)C(CC)OC(=O)C(C)C(OC2CC(C)(OC)C(O)C(C)O2)C(C)C1OC1OC(C)CC(N(C)C)C1O (centres unmarked) [Example 3, Compound of formula (I): R^1 is —CH2CH═CH2, R^4 is hydrogen, R^5 is hydrogen, R^6 is methyl, R^7 is hydrogen, R^8 is hydrogen] | > 100 | 50 | 0.39 | 8 | 0.39 | 6.2 | 0.1 | > 100 | 12.5 | > 100 | 0.2 | 0.39 | 0.39 | 8 | 0.06 | 0.06 | 0.1 | 0.05 | > 100 | 0.05 | Antibacterial Activity (MIC) [18]: 6.2 µg/mL; Antibacterial Activity (MIC) [19]: > 128 µg/mL |
| C=CCOC1(C)CC(C)CN(C)C(C)C(O)C(C)(O)C(CC)OC(=O)C(C)C(O)C(C)C1OC1OC(C)CC(N(C)C)C1O (centres unmarked) [Example 4, Compound of formula (II): R^1 is —CH2CH═CH2, R^2 is hydrogen, R^3 is —OR^13, R^13 is hydrogen, R^4 is hydrogen, R^5 is hydrogen, R^6 is methyl, R^8 is hydrogen] | > 100 | 50 | 0.78 | 4 | 0.39 | 6.2 | 0.05 | > 100 | 6.2 | > 100 | 0.39 | 0.39 | 0.39 | 8 | 0.03 | 0.03 | 0.05 | 0.02 | > 100 | 0.05 | Antibacterial Activity (MIC) [18]: 6.2 µg/mL; Antibacterial Activity (MIC) [19]: > 128 µg/mL |
